Consider 86 molecules from PubChem BioAssay AID504313 (Emory University Molecular Libraries Screening Center, 2011).

pIC50: −log10 of the molar value. Activity calls are given as the source filed them. The rule behind the calls is not given here.

The term pIC50 denotes the negative decadic logarithm of the IC50, by convention in mol/L. As a reminder, the IC50 is the midpoint of a concentration-inhibition curve.

This assay deals with X-box-binding protein 1 (Homo sapiens) (UniProt P17861). The assay can be described thus: inhibitors of XBP1 reporter signal, dose response, counter-screen, cell-based (AID 504313).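 Note: CHO cells carrying an XBP1 reporter stimulated with tunicamycin; potency is for inhibition of the tunicamycin-induced reporter signal.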 The note with it: XBP1 reporter cell assay, percent of control. Background: A counterscreen serves to expose hits that act by an unwanted route or on another target.
Take `S=C(Nc1ccccc1)Nc1ccc(OCc2ccc(Cl)cc2Cl)cc1`: the pIC50 was 6.72.
On to `O=C(c1ccco1)N1CCN(c2c(-c3ccccc3)c3cc(Cl)ccc3[nH]c2=O)CC1`, for which the IC50 was > 10 µM (inactive).
Take `COc1ccc([C@H]2Oc3cc(O)cc(O)c3C(=O)C2[C@@H]2C(=O)c3c(O)cc(O)cc3O[C@@H]2c2ccc(OC)cc2)cc1` (stereo partly specified): the IC50 was > 10 µM (inactive).
For the molecule `O=C(NCc1ccccc1Cl)c1ccc(S(=O)(=O)Nc2cccc(C(F)(F)F)c2)cc1`, the IC50 is > 10 µM (inactive).
Regarding `COc1ccc(N=c2oc3ccc(OC)cc3cc2-c2nc3ccccc3[nH]2)cc1`, the IC50 result was “inactive”.
Take `COCCCn1c(N)c(C(=O)NCCC(C)C)c2nc3ccccc3nc21`: the IC50 is > 10 µM (inactive).
Turning to `COC(=O)CS(=O)(=O)c1nnc([C@H](Cc2ccccc2)NC(=O)OC(C)(C)C)o1`, the IC50 result is “inactive”.
Same read-out and setting: the value for `CC(C)Cn1c(N)c(C(=O)COC(=O)CC23CC4CC(CC(C4)C2)C3)c(=O)n(C)c1=O` was “inactive”; that for `N#Cc1nccnc1S(=O)(=O)c1cccs1` was “inactive”; that for `COc1cc2c(cc1OC)C(c1ccccc1)N(C(=O)CCl)CC2` (stereo unspecified) was “inactive”.
On to `O=C(Nc1ccc(OC(F)F)cc1)Nc1cccc(C(F)(F)F)c1`, for which the IC50 is > 10 µM (inactive).
Consider `CN(C)c1ccc(/C=C/c2ccc3c4ccccc4ccc3[n+]2-c2ccccc2)cc1`, for which the pIC50 was 5.64.
With `Cc1ccc(Cl)cc1NC1=C/C(=N\S(=O)(=O)c2cccs2)c2ccccc2C1=O`, the IC50 entry is “inactive”.
On to `Cc1ccc(NC(=O)c2ccc(Nc3c([N+](=O)[O-])cc([N+](=O)[O-])cc3[N+](=O)[O-])cc2)cc1`, for which the IC50 entry was “inactive”.
As to `CC(C)(C)c1ccc(OCC(=O)N/N=C/C2CC=CCC2)cc1` (stereo unspecified), the IC50 entry is “inactive”.
As to `O=C(/C=C/Sc1ncn[nH]1)c1ccc(Cl)cc1`, the IC50 result was “inactive”.
`CSc1nc2c(cnn2-c2ccc(C)c(C)c2)c(=O)[nH]1`: the IC50 is > 10 µM (inactive).
For `CC(C)(C)c1ccc(C(=O)NNC(=O)c2cccc(Br)c2)cc1`, the IC50 is > 10 µM (inactive).
Regarding `CCCC(=O)N1CCN(c2ccc(NC(=O)c3cc4ccccc4o3)cc2Cl)CC1`, the IC50 entry is “inactive”.
The same measure, in the same setting: next, `COC(=O)[C@@H]1[C@@H](C(=O)OC)C2(c3ccccc3-c3ccccc32)N(c2ccc(Cl)cc2)N1C#N`: > 10 µM (inactive); `C[C@H](NC(=O)c1nc[nH]c1C(=O)N[C@@H](Cc1ccccc1)C(=O)OC(C)(C)C)C(=O)OC(C)(C)C`: “inactive”.
For `O=C1N(c2ccccc2)C[C@@H]2C[C@@H](c3cccs3)N3CCC[C@@]123`, the pIC50 is 5.55.
As to `CCCc1cc(=O)[nH]c(Nc2ccc(N3CCCCC3)cc2)n1`, the IC50 is > 10 µM (inactive).
Consider `Cc1cc(C2=NNC(=NC3CC3)SC2)c(C)n1-c1ccccc1F`, for which the IC50 was < 0.16 µM (inactive).
Regarding `Cc1cccc(NS(=O)(=O)c2ccc(C3CCCCC3)cc2)c1`, the pIC50 is 5.39.
Take `NS(=O)(=O)c1ccc(N/N=C2/CCCCC2C2CCCCC2)c([N+](=O)[O-])c1` (stereo unspecified): the pIC50 was 5.35.
On the same count and under the same terms, next, `O=C(NCc1nc(-c2ccc(C(F)(F)F)cc2)no1)Nc1ccc(OC(F)(F)F)cc1`: 5.37.
In the case of `Cc1ccn2cc(-c3cc4ccccc4oc3=O)nc2c1`, the IC50 entry is “inactive”.
Regarding `O=C1c2ccc3c4c(ccc(c24)C(=O)N1c1cccc(O)c1)C(=O)N(c1cccc(O)c1)C3=O`, the IC50 result was “inactive”.
On to `CCC(Cc1ccccc1)n1c(=S)[nH]c2ccccc2c1=O` (stereo unspecified), for which the IC50 was > 10 µM (inactive).
Same read-out and setting: next, `O=C(Nc1ccccc1NC(=O)NC1CCCCC1)NC1CCCCC1`: “inactive”; `CC(C)C[C@H](NC(=O)OC(C)(C)C)C(=O)N/N=C/C1=Cc2ccccc2OC1C` (stereo partly specified): “inactive”.
For `CCC(C)c1ccc(O)c(NC(=O)c2cncc(Br)c2)c1` (stereo unspecified), the IC50 result was “inactive”.
Consider `COc1ccccc1-c1cc(C(F)(F)F)nc(S(=O)(=O)CCCC(=O)NC(C)C)n1`, for which the IC50 result was “inactive”.
Still for that read-out and setting: the value for `COc1ccc(-c2[nH]ncc2N=Nc2cc(C)cc(C)c2)cc1` was > 10 µM (inactive).
For the molecule `CCCCNS(=O)(=O)c1ccc2nc(-c3cccnc3)cc(C(=O)NC3CCCC3)c2c1`, the IC50 is > 10 µM (inactive).
`C=C1C(=O)O[C@H]2C[C@@H](C)[C@@H]3C=CC(=O)[C@@]3(C)C[C@H]12`: the IC50 entry was “inactive”.
Consider `O=C(c1ccc(Cl)cc1)c1c[nH]c(C(=O)NNc2cccc(Cl)n2)c1`, for which the IC50 was > 10 µM (inactive).
Regarding `N#CC1=C(N)N2C(=C(C#N)C1c1cccc(Br)c1)Nc1ccccc12` (stereo unspecified), the IC50 result is “inactive”.
With `Oc1ccc(/C=N/Nc2nc(-c3ccc(Cl)cc3)cc(C(F)(F)F)n2)cc1`, the IC50 is > 10 µM (inactive).
Still for that read-out and setting: the value for `CCOC(=O)CN1C(c2ccc(O)cc2)Nc2ccc(Br)cc2C1c1ccccc1` (stereo unspecified) was > 10 µM (inactive); that for `Cc1ccc(/C=N/NC(=O)CCCOc2ccc(Cl)cc2Cl)cc1` was > 10 µM (inactive); that for `Cc1ccc(N2C(=O)NC(=O)/C(=C\C=C\c3ccco3)C2=O)cc1` was “inactive”.
In the case of `O=C(Nc1ccc([N+](=O)[O-])cc1)Nc1ccc(OC(F)F)c(Cl)c1`, the IC50 entry was “inactive”.
`COc1ccc(C(=O)NNC(=O)c2ccccn2)cc1`: the IC50 entry is “inactive”.
Turning to `CC(C)C[C@H](NC(=O)c1[nH]cnc1C(=O)N[C@@H](C)C(=O)OC(C)(C)C)C(=O)OC(C)(C)C`, the pIC50 was 5.57.
`Cc1cccc(Nc2nc(N)c([N+](=O)[O-])c(N3CC(C)CC(C)C3)n2)c1` (stereo unspecified): the IC50 result is “inactive”.
The same measure, in the same setting: next, `C/C(N)=C(/C#N)C(=O)COC(=O)C1CCC(C(C)(C)C)CC1` (stereo unspecified): > 10 µM (inactive).
As to `O=C(CSC1c2ccccc2-c2ccccc21)N/N=C/c1ccccc1O`, the IC50 was > 10 µM (inactive).
Still for that read-out and setting: the value for `C=CCn1c(CCNC(=O)c2ccc(Cl)c(Cl)c2)nnc1SCCOc1ccc(OC)cc1` was > 10 µM (inactive).
For the molecule `O=C(Nc1ccc([N+](=O)[O-])cc1)Nc1nc(-c2ccc(Cl)s2)cs1`, the pIC50 was 5.60.
Take `CCOC(=O)Cc1cc(-c2ccc(O)cc2)nc2ccc3ccccc3c12`: the IC50 was > 10 µM (inactive).
`CN1/C(=C/C(=O)c2nc(S(C)(=O)=O)ncc2Cl)C(C)(C)c2ccccc21`: the IC50 entry was “inactive”.
Consider `CCN(CC)S(=O)(=O)c1cccc(NC(=O)Nc2cccc(C(F)(F)F)c2)c1`, for which the IC50 entry was “inactive”.
As to `Cc1nn(Cc2c(Cl)cccc2Cl)c(C)c1NC(=O)c1cn(-c2ccccc2)nc1-c1ccccc1`, the IC50 entry is “inactive”.
Regarding `CC(=O)Nc1ccc(NC2=Nc3ccccc3N3C2=Nc2c(c(C)nn2-c2ccccc2)C3c2ccccc2)cc1` (stereo unspecified), the IC50 entry was “inactive”.
With `Nc1c(S(=O)(=O)c2ccccc2)c2nc3ccccc3nc2n1/N=C/c1cccc(O)c1`, the IC50 is > 10 µM (inactive).
For `Nc1c(C(=O)Nc2ccccc2F)sc2nc(-c3cccnc3)ccc12`, the IC50 was > 10 µM (inactive).
For `CCCCCn1c(=O)c(C(=O)Nc2nc3ccccc3[nH]2)c(O)c2ccccc21`, the pIC50 is 5.37.
As to `Cn1cnc([N+](=O)[O-])c1S(=O)(=O)c1cccc(Cl)c1`, the IC50 entry is “inactive”.
For the molecule `Cc1nc(SCC(=O)Nc2ccc(C)c(F)c2)c2oc3ccccc3c2n1`, the IC50 is > 10 µM (inactive).
Regarding `CCn1c(C)nc2cc(-c3nnc(-c4c(-c5ccccc5)noc4C)o3)ccc21`, the IC50 is > 10 µM (inactive).
As to `COc1ccc(CNc2oc(-c3cccc4ccccc34)nc2C#N)cc1`, the IC50 is > 10 µM (inactive).
Turning to `O=C(CCl)Nc1cc(-c2ccccc2)nn1-c1ccccc1`, the IC50 result was “inactive”.
Take `CCCCc1ccc(Nc2nc(CCC)cc(=O)[nH]2)cc1`: the pIC50 is 5.65.
For `C=C(C)Cn1c(N2CCC(Cc3ccccc3)CC2)nc2c1c(=O)[nH]c(=O)n2C`, the IC50 is > 10 µM (inactive).
As to `Cc1ccc(NN2C(=O)C=C(c3ccc(Cl)cc3)C2=O)cc1`, the IC50 result is “inactive”.
As for `CC(C)c1nnc(NC(=O)c2c(O)c3cccc4c3n(c2=O)CCC4)s1`, the pIC50 is 5.36.
For `CC(C)CC(NC(=O)c1ccc(Cl)cc1)C(=O)OCC(=O)c1ccc2c(c1)NC(=O)CO2` (stereo unspecified), the IC50 result is “inactive”.
Still for that read-out and setting: the value for `CCOc1cc(C)c(-c2onc(C(F)(F)F)c2-c2csc(C)n2)c(O)c1` was “inactive”; that for `Cc1ccc(NC(=O)CCl)cc1S(=O)(=O)N1CCCCCC1` was “inactive”; that for `O=S(=O)(NC1CC1)c1ccc(S(=O)(=O)N2CCCC3(CCCCC3)C2)cc1` was “inactive”.
As to `COc1ccc(/C=C2/SC(=S)N(CCCC(=O)Nc3ccc(O)cc3)C2=O)cc1`, the pIC50 was 6.74.
Turning to `CCSc1nc2ccccc2n1C(=O)/C=C\c1ccc(OC)c(OC)c1`, the pIC50 is 5.33.
Regarding `Cc1cccc(NC(=S)NC(NC(=O)OCc2ccccc2)C(Cl)(Cl)Cl)c1` (stereo unspecified), the IC50 is > 10 µM (inactive).
For the molecule `CCOC(=O)c1c(C)[nH]c2c1-c1ccccc1C(=O)C2=O`, the pIC50 is 5.85.
With `COc1ccc(Cn2c(SCc3ccccc3C)nc3cc(OC)c(OC)cc3c2=N)cc1`, the IC50 is > 10 µM (inactive).
Regarding `Cc1ccc(C(C(=O)NCc2ccco2)N(C(=O)CNC(=O)c2cccs2)c2c(C)cccc2C)cc1` (stereo unspecified), the IC50 is > 10 µM (inactive).
`CCc1ccc(-c2nc(CSCC(=O)NCc3ccco3)c(C)o2)cc1`: the pIC50 is greater than 6.80.
As for `CC(C)(C)C(=O)Cn1ncc(Br)c(Br)c1=O`, the IC50 is > 10 µM (inactive).
With `Cc1cccc(/C=C/C(=O)c2cc(Br)ccc(=O)c2O)c1`, the IC50 is > 10 µM (inactive).
With `C=CCn1c(C)cc(C2=NNC(=NCC)SC2)c1C`, the IC50 is < 0.16 µM (inactive).
Still for that read-out and setting: next, `CC1CCC(n2c(=S)[nH]c3ccccc3c2=O)CC1` (stereo unspecified): > 10 µM (inactive).
Turning to `O=C(NC(c1ccccc1)c1cc(Cl)c2cccnc2c1O)c1cccnc1` (stereo unspecified), the IC50 result is “inactive”.
As to `COc1ccccc1NC(=O)c1c(Nc2ccccc2C)sc(C(=O)Nc2cccc(Cl)c2)c1N`, the IC50 is > 10 µM (inactive).
On to `N#CC1=C(N)N2C(=C(C#N)C1c1ccc(Br)cc1)Nc1ccccc12` (stereo unspecified), for which the IC50 result is “inactive”.
